Structures can show the parent of a compound that is named as a salt.
Molecular target: T1, HIV integrase (Human immunodeficiency virus type 1 group M subtype B, UniProt P12497, F1332H)
T1 construct: HIV integrase full length gene (J. Virol., 67, 425-437 (1993)) in which phenylalanine at codon 185 was substituted by histidine; made in house; host or cells: Escherichia coli BL21(DE3)
Test: Determination of enzyme (HIV integrase) inhibitory activity
Assay type: biochemical
Conditions: recombinant integrase protein (F185H), donor DNA/target DNA, absorbance at 450 nm
Description: HIV integrase full length gene (J. Virol., 67, 425-437 (1993)) in which phenylalanine at codon 185 was substituted by histidine, was inserted between the restriction enzyme NdeI and XhoI sites of plasmid pET21a(+) (Novagen), whereby an integrase expression vector pET21a-IN-F185H was constructed.
Escherichia coli recombinant BL21(DE3) transformed with plasmid pET21a-IN-F185H obtained in (i) was shake cultured at 30° C. in a liquid medium containing ampicillin. When the culture reached the logarithmic growth phase, isopropyl-β-D-thiogalactopyranoside was added to promote expression of integrase gene. The culture was continued for 3 hr to promote accumulation of the integrase protein. The recombinant E. coli was collected in pellets by centrifugal separation and preserved at −80° C.
The E. coli was suspended in Lysis buffer (20 mM HEPES (pH 7.5), 5 mM DTT, 10 mM CHAPS, 10% glycerol) containing 1M sodium chloride and subjected to repeat pressurization and depressurization for rupture, and centrifugal separation at 4° C., 40,000×g, 60 min to recover a water-soluble fraction (supernatant). This was diluted 10-fold with Lysis buffer free of sodium chloride, mixed with SP-Sepharose (Pharmacia Corporation) and stirred at 4° C. for 60 min to allow adsorption of integrase protein to the resin. The resin was washed with Lysis buffer containing 100 mM sodium chloride and the integrase protein was eluted with Lysis buffer containing 1M sodium chloride.
The eluted integrase protein solution was subjected to a Superdex 75 (Pharmacia Corporation) column for gel filtration. The protein was eluted with Lysis buffer containing 1M sodium chloride.
The obtained fractions of the integrase protein were collected and preserved at −80° C.
The following DNA synthesized by Greiner was dissolved in TE buffer (10 mM Tris-hydrochloric acid (pH 8.0), 1 mM EDTA) and mixed with donor DNA, target DNA, and each complementary strand (+ and − strands) to 1 μM. The mixture was heated at 95° C. for 5 min, 80° C. for 10 min, 70° C. for 10 min, 60° C. for 10 min, 50° C. for 10 min and 40° C. for 10 min and kept at 25° C. to give a double stranded DNA, which was used for the test. Donor DNA ([…] attached to the 5′ terminal) Donor + strand: 5′-Biotin-ACCCTTTTAGTCAGTGTGGAAAATCTCTAGCA-3′ (SEQ ID NO:1) Donor − strand: 5′-ACTGCTAGAGATTTTCCACACTGACTAAAAG-3′ (SEQ ID NO:2) Target DNA (+, − strands both having digoxigenin added at 3′ terminal) Target + strand: 5′-TGACCAAGGGCTAATTCACT-Dig-3′ (SEQ ID NO:3) Target − strand: 5′-AGTGAATTAGCCCTTGGTCA-Dig-3′ (SEQ ID NO:4)
The donor DNA was diluted with TE buffer to 10 nM, of which 50 μl was added to each well of streptavidin-coated microtiter plate (Roche) and allowed to adsorb at 37° C. for 60 min. The plate was washed with phosphate buffer (Dulbecco's PBS, Sanko Junyaku Co., Ltd.) containing 0.1% Tween 20 and phosphate buffer. Then, an enzyme reaction mixture (70 μl), a test substance (10 μl) diluted with the reaction mixture and 100 μg/ml integrase protein (10 μl) were added to each well and reacted at 37° C. for 60 min.
Then, 50 nM target DNA (10 μl) was added, reacted at 37° C. for 10 min and washed with phosphate buffer containing 0.1% Tween 20 to stop the reaction.
Then, 100 mU/ml peroxidase labeled anti-digoxigenin antibody solution (Roche, 100 μl) was added, and the mixture was reacted at 37° C. for 60 min, followed by washing with phosphate buffer containing 0.1% Tween 20.
A peroxidase color solution (Bio Rad, 100 μl) was added and allowed to react at room temperature for 4 min. The color reaction was stopped by adding 1N sulfuric acid (100 μl). The absorbance at 450 nm was measured.
The HIV integrase inhibitory activity (IC50) of the compound of the present invention was calculated from the inhibition rate according to the following formula. […]

Row | SMILES | IC50 [nM]
1 | COCCCOc1cc2c(cc1Cc1cccc(Cl)c1F)c(=O)c(C(=O)O)cn2[C@H](CO)C(C)C [Example 4-8, 6-(3-chloro-2-fluorobenzyl)-1-((1S)-1-(hydroxymethyl)-2-methylpropyl)-7-(3-methoxypropoxy)-4-oxo-1,4-dihydroquinoline-3-carboxylic acid] | 4.7
2 | CC(C)[C@@H](CO)n1cc(C(=O)O)c(=O)c2cc(Cc3cccc(Cl)c3F)c(N3CCOCC3)cc21 [Example 4-9, 6-(3-chloro-2-fluorobenzyl)-1-((1S)-1-(hydroxymethyl)-2-methylpropyl)-7-(morpholin-4-yl)-4-oxo-1,4-dihydroquinoline-3-carboxylic acid] | 6
3 | CC(C)[C@@H](CO)n1cc(C(=O)O)c(=O)c2cc(Cc3cccc(Cl)c3F)c(N3CCN(C)CC3)cc21 [Example 4-10, 6-(3-chloro-2-fluorobenzyl)-1-((1S)-1-(hydroxymethyl)-2-methylpropyl)-7-(4-methylpiperazin-1-yl)-4-oxo-1,4-dihydroquinoline-3-carboxylic acid] | 6.2
4 | CC(=O)N1CCN(c2cc3c(cc2Cc2cccc(Cl)c2F)c(=O)c(C(=O)O)cn3[C@H](CO)C(C)C)CC1 [Example 4-11, 7-(4-acetylpiperazin-1-yl)-6-(3-chloro-2-fluorobenzyl)-1-((1S)-1-(hydroxymethyl)-2-methylpropyl)-4-oxo-1,4-dihydroquinoline-3-carboxylic acid] | 6.8
5 | CC(C)[C@@H](CO)n1cc(C(=O)O)c(=O)c2cc(Cc3cccc(Cl)c3F)c(N3CCNCC3)cc21 [Example 4-12, 6-(3-chloro-2-fluorobenzyl)-1-((1S)-1-(hydroxymethyl)-2-methylpropyl)-4-oxo-7-(piperazin-1-yl)-1,4-dihydroquinoline-3-carboxylic acid] | 7.3
6 | CC(C)[C@@H](CO)n1cc(C(=O)O)c(=O)c2cc(Cc3cccc(Cl)c3F)c(OCCN3CCCCC3)cc21 [Example 4-13, 6-(3-chloro-2-fluorobenzyl)-1-((1S)-1-(hydroxymethyl)-2-methylpropyl)-4-oxo-7-(2-(piperidin-1-yl)ethoxy)-1,4-dihydroquinoline-3-carboxylic acid] | 6.3
7 | CC(C)[C@@H](CO)n1cc(C(=O)O)c(=O)c2cc(Cc3cccc(Cl)c3F)c(OC3CCN(C)CC3)cc21 [Example 4-14, 6-(3-chloro-2-fluorobenzyl)-1-((1S)-1-(hydroxymethyl)-2-methylpropyl)-7-(1-methylpiperidin-4-yloxy)-4-oxo-1,4-dihydroquinoline-3-carboxylic acid] | 5.4
8 | CCN1CCN(c2cc3c(cc2Cc2cccc(Cl)c2F)c(=O)c(C(=O)O)cn3[C@H](CO)C(C)C)CC1 [Example 4-15, 6-(3-chloro-2-fluorobenzyl)-7-(4-ethylpiperazin-1-yl)-1-((1S)-1-(hydroxymethyl)-2-methylpropyl)-4-oxo-1,4-dihydroquinoline-3-carboxylic acid] | 11
9 | CC(C)[C@@H](CO)n1cc(C(=O)O)c(=O)c2cc(Cc3cccc(Cl)c3F)c(OCCN3CCOCC3)cc21 [Example 4-16, 6-(3-chloro-2-fluorobenzyl)-1-((1S)-1-(hydroxymethyl)-2-methylpropyl)-7-(2-(morpholin-4-yl)ethoxy)-4-oxo-1,4-dihydroquinoline-3-carboxylic acid] | 7.9
10 | CC(C)[C@@H](CO)n1cc(C(=O)O)c(=O)c2cc(Cc3cccc(Cl)c3F)c(OCCN3CCCC3)cc21 [Example 4-17, 6-(3-chloro-2-fluorobenzyl)-1-((1S)-1-(hydroxymethyl)-2-methylpropyl)-4-oxo-7-(2-(pyrrolidin-1-yl)ethoxy)-1,4-dihydroquinoline-3-carboxylic acid] | 11
11 | CC(C)[C@@H](CO)n1cc(C(=O)O)c(=O)c2cc(Cc3cccc(Cl)c3F)c(OCCN)cc21 [Example 4-18, 7-(2-aminoethoxy)-6-(3-chloro-2-fluorobenzyl)-1-((1S)-1-(hydroxymethyl)-2-methylpropyl)-4-oxo-1,4-dihydroquinoline-3-carboxylic acid hydrochloride] | 4.8
